From patent US20080125432A1 (Devgen NV, priority 2004, published 2008)
Where two headings read alike, the source gives them in different places.

Columns and labels:
[1] = molecular target: T1, human Kv4.3/KChIP2.2 potassium channel (Homo sapiens, UniProt Q9UK17); assay: Whole cell patch clamp, CHO-K1 cells stably expressing human Kv4.3/KChIP2.2; type: cell-based; conditions: CHO-K1
T1 construct: expressed in transfected cells
T1 sequence (Q9UK17 1-655): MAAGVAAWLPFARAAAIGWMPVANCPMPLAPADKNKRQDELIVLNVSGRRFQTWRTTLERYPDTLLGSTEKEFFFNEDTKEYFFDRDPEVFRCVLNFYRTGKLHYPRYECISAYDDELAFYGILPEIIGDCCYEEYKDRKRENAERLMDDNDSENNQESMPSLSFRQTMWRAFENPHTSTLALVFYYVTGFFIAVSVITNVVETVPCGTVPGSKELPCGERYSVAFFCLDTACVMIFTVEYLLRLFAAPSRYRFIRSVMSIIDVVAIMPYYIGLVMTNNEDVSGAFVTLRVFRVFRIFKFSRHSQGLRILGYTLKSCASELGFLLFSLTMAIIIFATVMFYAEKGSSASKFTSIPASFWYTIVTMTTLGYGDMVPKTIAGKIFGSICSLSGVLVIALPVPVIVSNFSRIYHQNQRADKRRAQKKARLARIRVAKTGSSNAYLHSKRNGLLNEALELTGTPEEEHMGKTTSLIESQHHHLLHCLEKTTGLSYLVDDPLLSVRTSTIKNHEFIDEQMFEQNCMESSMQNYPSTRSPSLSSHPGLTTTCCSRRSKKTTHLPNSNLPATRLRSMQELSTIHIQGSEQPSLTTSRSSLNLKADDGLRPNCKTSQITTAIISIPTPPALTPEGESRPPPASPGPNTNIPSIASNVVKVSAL
Description: For this experiment, a recombinant CHO-K1 cell line stably expressing the human Kv4.3/KChIP2.2 potassium channel was used. The cells used for this experiment were kept in continuous culture under standard conditions (37° C., air supplemented with 7% CO2). The CHO-K1 Kv4.3/KChIP2.2 cells were kept in Iscove s modified DMEM (Dulbecco's Modified Eagle's Medium) medium (IMEM) supplemented with 100 U/ml Penicillin, 100 μg/ml Streptomycin, 7% fetal calf serum (FCS), 2.5 μg/ml amphotericin, 400 μg/ml G418, and 400 μg/ml Zeocin™. Cells were passed every 3-4 days after detachment using a Trypsin solution. The quality of the cultured cells was guaranteed by vitality and contamination tests. The culture of the cells was performed as described in protocol D hereunder.
10 mM stock solutions of the compounds were prepared in DMSO. Solutions of the compounds were prepared by dilution of stock solution in bath solution. If the required stock solution volume was theoretically below 1 μl, bath solutions with higher compound concentration were used for dilution. The maximal DMSO concentration during experiments was 0.1% (v/v).
Activity of the human Kv4.3/KChIP2.2 channel was investigated using the patch clamp technique in its whole cell mode. This means that the current needed for clamping the whole cell expressing the K^+-channel protein to a specific potential was measured. Experiments were performed using a patch clamp set-up. Technical equipment needed for manipulation of the cells was placed on a vibration-isolated table and shielded with a Faraday cage to minimize electrical noise. The amplifier and control system were placed in a rack outside the Faraday cage. The system consisted of an EPC9 or EPC10 patch clamp amplifier (HEKA, Lambrecht, Germany), and the perfusion system DADVC8 (ALA Scientific, New York, USA) controlled by the Pulse software package (HEKA, Lambrecht, Germany) installed on a personal computer. The pipettes used for patch clamping were made of borosilicate glass.
Measurements were performed at room temperature (20-25° C.). In each experiment (i.e. each cell) only one concentration of the compounds was investigated no cumulative dosages were performed. Each cell acted as its own control. […]
Between voltage pulses the cell was clamped to a holding potential of −80 mV (inside). The test protocols are illustrated in FIG. 1 and Table 4. The test protocol illustrated in FIG. 1a was used to characterize the properties of the Kv4.3/KChIP2.2 channel and to check the quality of the individual patch clamp experiment (voltage control). […] Each test protocol consisted of 4 segments.
After the whole cell configuration was established a current-voltage curve (IV activation 1; FIG. 1a and Table 4a) was recorded under constant superfusion with bath solution to check for Kv4.3/KChIP2.2 expression and the quality of the individual patch clamp experiment (voltage control). Subsequently, 14 test pulses (series 1; FIG. 1b and Table 4b) were applied at 0.1 Hz under constant superfusion with bath solution. The protocol was initiated by a voltage jump to 100 mV (400 ms) to achieve full inactivation. Then the Kv4.3/KChIP2.2 channels were transferred to the open state by depolarization to +40 mV for 300 milliseconds (activation). Only cells generating current amplitudes between 1 nA and 50 nA were used for the experimental procedure. No or negligible rundown was observed.
Then, 36 test pulses (series 2) were applied at 0.1 Hz under constant superfusion with the compound dissolved in bath solution. Finally, another current-voltage curve was recorded in the presence of the compounds (IV activation 2).
Three different types of analysis were used: Inhibition at the peak current, inhibition of translocated charge and inhibition 75 ms after activation at +40 mV (sustained current). The peak current/charge/current at 75 ms was determined using the online analysis tool of the HEKA pulse software package. […]

[2] = remaining current measured after application of the compound and relative to the blank, read-out: Kv4.3 charge in %
[3] = remaining peak height measured after application of the compound and relative to the blank, read-out: Kv4.3 peak in %

Compound | remaining activity at 1 µM [1, 2] [%] | remaining activity at 1 µM [1, 3] [%] | melting point [°C]
COc1ccccc1Nc1nc(C)c(C(=O)N2Cc3ccccc3C2)s1 [Compound 84, (1,3-dihydro-isoindol-2-yl)-[2-(2-methoxy-phenylamino)-4-methyl-thiazol-5-yl]-methanone] | 87 | 99 | 147.6 to 149.6
COc1ccccc1Nc1nc(C)c(C(=O)N2CCc3ccccc3C2)s1 [Compound 85, (3,4-dihydro-1H-isoquinolin-2-yl)-[2-(2-methoxy-phenylamino)-4-methyl-thiazol-5-yl]-methanone] | 82 | 96 | 159.3 to 163.5
COc1ccccc1Nc1nc(C)c(C(=O)N2CCCCC2Cc2ccccc2)s1 (stereo not drawn) [Compound 86, (2-benzyl-piperidin-1-yl)-[2-(2-methoxy-phenylamino)-4-methyl-thiazol-5-yl]-methanone] | 79 | 102 | 93.2 to 95.6
CCOC(=O)c1cccc(Nc2nc(C)c(C(=O)N[C@H]3CCC[C@@H]3OCc3ccccc3)s2)c1 [Compound 89, 3-[5-((1S,2S)-2-benzyloxy-cyclopent-1-ylcarbamoyl)-4-methyl-thiazol-2-ylamino]-benzoic acid ethyl ester] | 55 | 93 | 145.7 to 148
COc1ccccc1Nc1nc(C)c(C(=O)NCc2ccc(Oc3ccccc3)cc2)s1 [Compound 102, 2-(2-methoxy-phenylamino)-4-methyl-thiazole-5-carboxylic acid 4-phenoxy-benzylamide] | 76 | 89 | 159.7 to 162.4
COc1ccccc1Nc1nc(C)c(C(=O)N[C@H](C(=O)O)c2ccccc2)s1 [Compound 114, (S)-{[2-(2-methoxy-phenylamino)-4-methyl-thiazole-5-carbonyl]-amino}-phenyl-aceticacid] | 88 | 87 | 259.6 to 262
COc1ccccc1Nc1nc(C)c(C(=O)OCc2ccccc2)s1 [Compound 123, 2-(2-methoxy-phenylamino)-4-methyl-thiazole-5-carboxylic acid benzyl ester] | 31 | 72 | 98.4 to 100
COc1ccccc1Nc1nc(C)c(C(=O)N2CCN(Cc3ccccc3)C[C@@H]2Cc2ccccc2)s1 [Compound 125, ((S)-2,4-dibenzyl-piperazin-1-yl)-[2-(2-methoxy-phenylamino)-4-methyl-thiazol-5-yl]-methanone] | 74 | 95 | 89.3 to 92.5
COc1ccccc1Nc1ncc(C(=O)NCc2ccccc2)[nH]1 [Compound 224, 2-(2-methoxy-phenylamino)-3H-imidazole-4-carboxylic acid benzylamide] | – | – | 212.5 to 213.9
COc1ccc(CNC(=O)c2cnc(Nc3ccccc3OC)[nH]2)c(OC)c1 [Compound 225, 2-(2-methoxy-phenylamino)-3H-imidazole-4-carboxylic acid 2,4-dimethoxy-benzylamide] | – | – | 134.1 to 136.2
COc1ccccc1Nc1ncc(C(=O)NCc2ccc(F)c(C(F)(F)F)c2)[nH]1 [Compound 226, 2-(2-methoxy-phenylamino)-3H-imidazole-4-carboxylic acid 4-fluoro-3-trifluoromethyl-benzylamide] | – | – | 227.9 to 230

Next, values leading:

remaining activity at 1 µM [1, 2] [%] | remaining activity at 1 µM [1, 3] [%] | melting point [°C] | Compound
82 | 91 | 183.5 to 188.1 | COc1ccccc1Nc1nc(C)c(C(=O)Nc2ccccc2)s1 [Compound 82, 2-(2-methoxy-phenylamino)-4-methyl-thiazole-5-carboxylic acid phenylamide]
77 | 97 | 143.2 to 147.6 | COc1ccccc1Nc1nc(C)c(C(=O)NC2Cc3ccccc3C2)s1 [Compound 83, 2-(2-methoxy-phenylamino)-4-methyl-thiazole-5-carboxylic acid indan-2-ylamide]
85 | 95 | 44.6 to 47.6 | COc1ccccc1Nc1nc(C)c(C(=O)NCCOCc2ccccc2)s1 [Compound 88, 2-(2-methoxy-phenylamino)-4-methyl-thiazole-5-carboxylic acid (2-benzyloxy-ethyl)-amide]
85 | 99 | 199.7 to 200.3 | COc1ccccc1Nc1nc(C)c(C(=O)NCc2ccc(CNC(C)=O)cc2)s1 [Compound 96, 2-(2-methoxy-phenylamino)-4-methyl-thiazole-5-carboxylic acid 4-(acetylamino-methyl)-benzylamide]
64 | 89 | 195.6 to 198.6 | COc1ccccc1Nc1nc(C)c(C(=O)NCc2ccc(-c3cccs3)cc2)s1 [Compound 103, 2-(2-methoxy-phenylamino)-4-methyl-thiazole-5-carboxylic acid 4-thiophen-2-yl-benzylamide]
85 | 94 | 153.4 to 154.8 | COc1ccccc1Nc1nc(C)c(C(=O)NCc2ccsc2)s1 [Compound 118, 2-(2-methoxy-phenylamino)-4-methyl-thiazole-5-carboxylic acid (thiophen-3-ylmethyl)-amide]
90 | 95 | 153.6 to 156.2 | COc1ccccc1Nc1nc(C)c(C(=O)NCc2ccccc2)s1 [Compound 124, 2-(2-methoxy-phenylamino)-4-methyl-thiazole-5-carboxylic acid benzylamide]
74 | 80 | 166.8 to 168.3 | COc1ccccc1Nc1nc(C)c(C(=O)NCc2ccc(C)cc2)s1 [Compound 142, 2-(2-methoxy-phenylamino)-4-methyl-thiazole-5-carboxylic acid 4-methyl-benzylamide]
90 | 99 | 124.1 to 124.9 | COc1ccccc1Nc1nc(C)c(C(=O)NCc2cc(C)ccc2C)s1 [Compound 160, 2-(2-methoxy-phenylamino)-4-methyl-thiazole-5-carboxylic acid 2,5-dimethyl-benzylamide]
